Where a SMILES comes first, the peptide text is derived from it.
Tests used:
[1] = tested on: smooth muscle of tracheal rings; test: spasmodic contraction of tracheal rings ex vivo (histamine-induced); parameters: species or system Dunkin-Hartley guinea pigs; conditions: for Effectiveness (Emax) (%): relaxation of tracheal rings contracted by histamine (50 μM); for Effectiveness (Emax) (%) / Potency (pEC50) Molar: mean±SEM; for Potency (pEC50) Molar: tracheal rings contracted by histamine (50 μM), peptides 0.01 to 10 μM
Description: The magnitude of the relaxing effect of the peptides was evaluated by means of a model of spasmodic contraction of tracheal rings ex vivo, largely employed to test new bronchodilating agents (see CULLUM, V. A., FARMER, J. B., JACK, D., LEVY, G. P. Salbutamol: a new, selective β-adrenoceptive receptor stimulant. British journal of pharmacology, 35(1): 141-151. 1969; KAO, C. H., CHU, Y. H., WANG, H. W. Effects of lidocaine on rat's isolated tracheal smooth muscle. European Archives of Oto-Rhino-Laryngology, 267(5): 817-820. 2010; SORIANO-URSÚA, M. A., VALENCIA-HERNÁNDEZ, I., ARELLANO-MENDOZA, M. G., CORREA-BASURTO, J., TRUJILLO-FERRARA, J. G. Synthesis, pharmacological and in silico evaluation of 1-(4-dihydroxy-3, 5-dioxa-4-borabycyclo [4.4.0] deca-7,9,11-trien-9-yl)-2-(tert-butylamine) ethanol, a compound designed to act as a β2 adrenoceptor agonist. European journal of medicinal chemistry, 44(7): 2840-2846. 2009).
For each test, Dunkin-Hartley guinea pigs (400-500 g) were euthanized in a CO2 atmosphere; subsequently, the trachea was exposed, removed and sectioned in segments of 1 to 3 cartilaginous tracheal rings. Each segment was transferred to an individual organ bath system containing Krebs nutritive solution (NaCl 118 mM; KCl […]; CaCl2) 2.5 mM; MgSO4 1.2 mM; KH2PO4 1.2 mM; NaHCO324 mM; glucose 11 mM) at 37° C., under constant aeration with a carbogenic mixture (95% of O2 and 5% of CO2). In each system, a stem fixed to the base of the container and another connected to an isometric transducer (GRASS FT-03) made up the support of the fragments. A data digitizing system connected to the isometric transducer allowed the recording of tension variations produced by the contraction of the tracheal rings (PowerLab™ 16/30, LabChart, version 8.1, AD Instruments, Australia). The basal tension was adjusted to 1 g, and subsequently, the contractility of the fragments was evaluated by a stimulus with carbachol (2.5 μM). After 1 h at rest, the basal tension was recovered and the tissues were subjected to contraction induced by histamine (50 μM) followed by exposure to increasing concentrations of the treatments (0.01 to 10 μM; n=8) or the comparator PnTx(19).
Table 1 lists the mean±SEM of the potency values, shown as the negative logarithm of the concentration that reduced the voltage to 50% of the maximum Histamine-induced contraction (pEC50), and efficacy (Emax), calculated from at least 8 independent tests using the sigmoid nonlinear regression equation of the software Graph Prism 5.0 (GraphPad Software, La Jolla, Ca, USA).

[2] = tested on: cavernosal strips; test: relaxation induced by electric stimuli in cavernosal strips pre-contracted with phenylephrine ex vivo; parameters: species or system rats of Sprague Dawley (SD) lineage; conditions: peptides 10^−10 M; 10^−8 M; 10^−6 M; FIG. 3
Description: The relaxing potential of the peptides of the present invention on the smooth muscles of cavernous strips was evaluated ex vivo using tissue isolated from rats, a model that is largely used to test drug candidates for the treatment of ED (ITALIANO, G., CALABRÒ, A., PAGANO, F. A simplified in vitro preparation of the corpus cavernosum as a tool for investigating erectile pharmacology in the rat. Pharmacological research, 30(4): 325-334. 1994; GEMALMAZ, H., WALDECK, K., CHAPMAN, T. N., TUTTLE, J. B., STEERS, W. D., ANDERSSON, K E. In vivo and in vitro investigation of the effects of sildenafil on rat cavernous smooth muscle. The Journal of Urology, 165(3): 1010-1014.2001).
Male rats of Sprague Dawley (SD) lineage were sacrificed by guillotine; the penises were removed surgically and placed on a Petri dish containing Krebs—bicarbonate solution (NaCl 118.1 mM; KCl 4.7 mM; KH2PO4 1.0 mM; MgSO4 1.0 mM; NaHCO3 25.0 mM; CaCl2) 2.5 mM and Glucose 11.1 mM). The corpus cavernosum were dissected by removing the glans, urethra, spongeous body and dorsal vein, and then separated by cutting the fibrous septum between them. Cavernosal strips measuring 2×2×7 mm were mounted separately in a bath for isolated organs containing bicarbonate solution-Krebs (pH 7.4) at 37° C., aerated with 95% of O02 and 5% of CO2. The tissue was connected to a tension transducer and the changes in tension were continuously registered. The cavernosal strips were contracted with phenylephrine (10^−5 M) and subsequently relaxed by electrical stimulation at different frequencies (1 to 32 Hz). […] Differences in the percentage of relaxation between treatment and control were evaluated with regard to statistical significance by means of two-way variance analysis (Two-Way ANOVA) followed by Bonferroni post-test. For the comparison between the treatments and control in light of the stimulation in a single frequency, the results were evaluated by one-way analysis variance (One-Way ANOVA) followed by Bonferroni post-test. […]

[3] = tested on: house dust mite (HDM) sensitized A/J mice; assay type: in vivo, Male A/J mice; conditions: 10 nMol and 30 nMol per animal, 6 h after intratracheal instillation
Description: Male A/J mice (18-20 g), were sensitized by house dust mite (HDM) to established acute allergic asthma according to the protocol of Haspelagh et al (HASPESLAGH, E., DEBEUF, N., HAMMAD, H., LAMBRECHT, B. N. Murine Models of Allergic Asthma. Methods Mol Biol, 1559:121-136. 2017). Inflammatory cell infiltrations in the bronchoalveolar lavage fluid (BALF) were analyzed by flow cytometry.
The mice (n=5 per group) were treated with vehicle (PBS), SEQ ID NO: 19, SEQ ID NO: 24 or PnTx(19), at doses of 10 nMol and 30 nMol per animal, by intratracheal instillation, and material were collected 6 hours post-challenge.

Row | Structure (SMILES) | Effectiveness (Emax) (%) [1] [%] | Potency (pEC50) Molar [1] [Molar] | enhancing effect on relaxation induced by electric stimuli in strips of cavernous body contracted by phenylephrine [2] | neutrophil accumulation in the bronchoalveolar space [3] | relaxing effect on airway (tracheal ring) smooth muscle, in words ([1]; histamine-induced contraction ex vivo)
1 | CC[C@H](C)[C@H](NC(=O)[C@H](Cc1c[nH]c2ccccc12)NC(=O)[C@H](Cc1ccccc1)NC(C)=O)C(=O)N[C@@H](C)C(=O)N[C@@H](Cc1c[nH]c2ccccc12)C(=O)N[C@@H](Cc1ccc(O)cc1)C(=O)N[C@@H](CCCCN)C(=O)N[C@@H](CC(C)C)C(=O)N[C@@H](C)C(N)=O [SEQ ID NO: 19, Ac-Phe-Trp-Ile-Ala-Trp-Tyr-Lys-Leu-Ala-NH2] (Ac-FWIAWYKLA-NH2) | 40.0 ± 3.4 | 7.3 ± 0.4 | enhancing effect | did not induce neutrophil accumulation | 
2 | CC[C@H](C)[C@H](NC(C)=O)C(=O)N[C@@H](C)C(=O)N[C@@H](Cc1c[nH]c2ccccc12)C(=O)N[C@@H](Cc1ccc(O)cc1)C(=O)N[C@@H](CCCCN)C(N)=O [SEQ ID NO: 24, Ac-Ile-Ala-Trp-Tyr-Lys-NH2] (Ac-IAWYK-NH2) | 29.0 ± 1.0 | 7.9 ± 0.3 | enhancing effect | did not induce neutrophil accumulation | effective

Source: patent US10905738B2, “Synthetic peptides, prodrugs, pharmaceutical compositions and uses” (Biozeus Desenvolvimento De Produtos Biofarmacêuticos, priority 2018, dated 2021)
